Measured values published in the supplement of paper PMC6045584.
± gives the standard deviation of the averaged measurements.

Tests used:
[1] = compound: CNCc1ccc(-c2[nH]c3cc(F)cc4c3c2CCNC4=O)cc1; experiment: surviving fraction relative to DMSO-only wells; higher = less growth inhibition; settings: exposure time: 5 days
In short: (§1)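 Viability values are CellTiter-Glo luminescence readings, given as surviving fraction against the median of DMSO-only wells. The readings were taken after 10 minutes at room temperature, following five days of continuous exposure to inhibitors at 0.5, 1, 5, 10, 50, 100, 500 and 1000 nM that began 24 hours after log-phase tumour cell lines were seeded at 250–500 cells per well in 384-well plates. Every line was screened three times and kept only if replicate Pearson r >0.7 and median Z' >0.3.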

[2] = compound: T1, Oc1nc(-c2ccc(C(F)(F)F)cc2)nc2c1CSCC2 [XAV-939]; experiment: as above; settings: exposure time: 5 days
In short: as §1

[3] = compound: CNCc1ccc(-c2[nH]c3cc(F)cc4c3c2CCNC4=O)cc1; experiment: area under dose-response curve of surviving fraction (unscaled, Aref=0) (surviving fraction x log10(nM)); higher = more resistant; settings: exposure time: 5 days; dose range 0.5-1000 nM
In short: (§2)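 Tumour cell lines in 384-well plates were exposed to eight inhibitor concentrations, from 0.5 to 1000 nM, for five days, and viability was read by CellTiter-Glo luminescence in three screens per line. Signals were normalised to DMSO-only wells, and 3-parameter logistic regression in the drc R package fitted dose-response survival curves to the surviving fractions. Area under the curve is given as the unscaled activity area. That area is taken over log10 dose with Aref = 0.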

[4] = compound: C[C@@H](Oc1cc(-c2cnn(C3CCNCC3)c2)cnc1N)c1c(Cl)ccc(F)c1Cl [CRIZOTINIB]; experiment: as above; settings: exposure time: 5 days; dose range 0.5-1000 nM
In short: as §2

[5] = compound: O=C(c1cc(Cc2n[nH]c(=O)c3ccccc23)ccc1F)N1CCN(C(=O)C2CC2)CC1 [OLAPARIB]; experiment: as above; settings: exposure time: 5 days; dose range 0.5-1000 nM
In short: as §2

[6] = compound: T1, XAV-939; experiment: as above; settings: exposure time: 5 days; dose range 0.5-1000 nM
In short: as §2

Row | Test System | surviving fraction ([1]; 0.5 nM) | surviving fraction ([1]; 1 nM) | surviving fraction ([1]; 5 nM) | surviving fraction ([1]; 10 nM) | surviving fraction ([1]; 50 nM) | surviving fraction ([1]; 100 nM) | surviving fraction ([1]; 500 nM) | surviving fraction ([1]; 1000 nM) | surviving fraction ([2]; 0.5 nM) | surviving fraction ([2]; 1 nM) | surviving fraction ([2]; 5 nM) | surviving fraction ([2]; 10 nM) | surviving fraction ([2]; 50 nM) | surviving fraction ([2]; 100 nM) | surviving fraction ([2]; 500 nM) | surviving fraction ([2]; 1000 nM) | area under dose-response curve [3] | area under dose-response curve [4] | area under dose-response curve [5] | area under dose-response curve [6]
1 | 22RV1 PROSTATE | 1.09 ± 0.051 | 1.13 ± 0.09 | 1.02 ± 0.075 | 0.968 ± 0.12 | 1.28 ± 0.32 | 1.04 ± 0.061 | 1.014 ± 0.0031 | 1.11 ± 0.24 | 1.02 ± 0.072 | 1.05 ± 0.11 | 1.03 ± 0.032 | 1 ± 0.065 | 0.934 ± 0.024 | 0.977 ± 0.024 | 1 ± 0.12 | 1.03 ± 0.096 | 3.57 | 3.17 | 3.41 | 3.34
2 | 93VU HEADNECK | 0.958 ± 0.074 | 0.994 ± 0.09 | 1.08 ± 0.081 | 1.01 ± 0.028 | 0.892 ± 0.07 | 0.859 ± 0.063 | 0.927 ± 0.04 | 0.894 ± 0.036 | 0.98 ± 0.073 | 1.06 ± 0.071 | 1.11 ± 0.091 | 1.07 ± 0.077 | 1.15 ± 0.095 | 1.17 ± 0.066 | 1.05 ± 0.089 | 0.907 ± 0.035 | 3.13 | 3.62 |  | 3.51
3 | A549 LUNG | 1.1 ± 0.039 | 1.07 ± 0.03 | 1.057 ± 0.0071 | 1.06 ± 0.029 | 1.14 ± 0.066 | 1.05 ± 0.06 | 1.08 ± 0.027 | 1.08 ± 0.034 | 0.967 ± 0.022 | 0.985 ± 0.053 | 1.01 ± 0.035 | 1.02 ± 0.087 | 1.07 ± 0.022 | 1.12 ± 0.013 | 1.084 ± 0.0087 | 1.14 ± 0.022 | 3.56 | 3.27 | 3.48 | 3.48
4 | ASKA SYNOVIAL | 1.1 ± 0.024 | 1.04 ± 0.072 | 1.04 ± 0.07 | 0.987 ± 0.017 | 0.887 ± 0.053 | 0.72 ± 0.019 | 0.653 ± 0.1 | 0.585 ± 0.057 | 1.15 ± 0.11 | 1.17 ± 0.098 | 1.18 ± 0.028 | 1.23 ± 0.13 | 1.2 ± 0.073 | 1.14 ± 0.065 | 0.98 ± 0.068 | 0.984 ± 0.023 | 2.86 | 2.02 |  | 3.73
5 | C33A CERVIX | 0.991 ± 0.071 | 0.993 ± 0.078 | 1.02 ± 0.085 | 0.937 ± 0.095 | 1.09 ± 0.13 | 0.963 ± 0.041 | 1.25 ± 0.024 | 0.707 ± 0.0089 | 0.909 ± 0.039 | 0.973 ± 0.1 | 0.981 ± 0.032 | 1.03 ± 0.068 | 0.913 ± 0.068 | 0.901 ± 0.048 | 0.835 ± 0.062 | 0.755 ± 0.04 | 3.29 | 3.26 |  | 3.08
6 | CADOES1 SOFT TISSUE | 1 ± 0.21 | 0.975 ± 0.19 | 0.903 ± 0.081 | 0.838 ± 0.045 | 1.02 ± 0.068 | 0.856 ± 0.12 | 0.799 ± 0.14 | 0.715 ± 0.22 | 0.957 ± 0.1 | 0.993 ± 0.092 | 0.816 ± 0.0092 | 0.903 ± 0.049 | 0.857 ± 0.13 | 0.899 ± 0.094 | 0.922 ± 0.076 | 0.913 ± 0.091 | 2.97 | 3.05 | 3.04 | 2.98
7 | CAL51 BREAST | 0.935 ± 0.033 | 0.96 ± 0.04 | 0.927 ± 0.023 | 0.848 ± 0.052 | 0.954 ± 0.019 | 0.819 ± 0.021 | 0.706 ± 0.035 | 0.604 ± 0.021 | 0.967 ± 0.032 | 1.03 ± 0.046 | 1.02 ± 0.025 | 0.992 ± 0.017 | 1.01 ± 0.049 | 1.01 ± 0.023 | 0.846 ± 0.033 | 0.799 ± 0.089 | 2.78 | 2.87 | 2.99 | 3.24
8 | CAL120 BREAST | 1.04 ± 0.047 | 0.995 ± 0.075 | 0.984 ± 0.044 | 1.01 ± 0.043 | 0.945 ± 0.026 | 0.929 ± 0.056 | 0.926 ± 0.057 | 0.918 ± 0.043 | 0.984 ± 0.027 | 1.02 ± 0.013 | 1.01 ± 0.019 | 0.969 ± 0.018 | 1.01 ± 0.021 | 1.011 ± 0.0096 | 0.951 ± 0.012 | 0.9582 ± 0.0029 | 3.19 | 3.24 | 2.89 | 3.24
9 | CASKI CERVIX | 0.893 ± 0.022 | 0.968 ± 0.014 | 0.992 ± 0.015 | 0.939 ± 0.024 | 0.89 ± 0.03 | 0.898 ± 0.077 | 0.923 ± 0.12 | 0.848 ± 0.034 | 0.918 ± 0.017 | 0.944 ± 0.037 | 0.975 ± 0.011 | 0.997 ± 0.013 | 1.03 ± 0.028 | 1.06 ± 0.03 | 0.935 ± 0.037 | 0.965 ± 0.051 | 3.04 | 2.83 | 2.98 | 3.25
10 | CHLA90 AUTONOMIC GANGLIA | 0.97 ± 0.049 | 1.01 ± 0.068 | 0.961 ± 0.039 | 0.987 ± 0.043 | 0.993 ± 0.095 | 1.03 ± 0.023 | 1.01 ± 0.038 | 1.03 ± 0.033 | 1.01 ± 0.071 | 1.04 ± 0.051 | 0.989 ± 0.031 | 0.997 ± 0.045 | 0.975 ± 0.019 | 0.948 ± 0.067 | 0.987 ± 0.072 | 0.933 ± 0.022 | 3.28 | 3.12 |  | 3.24
11 | COLO320DM LARGE INTESTINE | 1.04 ± 0.067 | 1.05 ± 0.021 | 1.12 ± 0.027 | 0.962 ± 0.1 | 0.96 ± 0.04 | 0.933 ± 0.12 | 0.933 ± 0.066 | 0.901 ± 0.014 | 1.1 ± 0.051 | 1.14 ± 0.069 | 1.08 ± 0.15 | 0.997 ± 0.11 | 1.08 ± 0.013 | 0.994 ± 0.075 | 0.827 ± 0.071 | 0.805 ± 0.088 | 3.27 | 3.21 | 3.46 | 3.19
12 | H23 LUNG | 1.05 ± 0.061 | 1.07 ± 0.066 | 1.05 ± 0.025 | 1.1 ± 0.011 | 1.16 ± 0.076 | 1.11 ± 0.043 | 1.14 ± 0.035 | 1.12 ± 0.021 | 0.953 ± 0.035 | 1.03 ± 0.062 | 1.04 ± 0.071 | 1.08 ± 0.075 | 1.01 ± 0.037 | 0.992 ± 0.02 | 0.391 ± 0.041 | 0.318 ± 0.024 | 3.63 | 3.48 | 3.67 | 2.94
13 | HCC78 LUNG | 1 ± 0.17 | 0.867 ± 0.05 | 1.12 ± 0.22 | 1.13 ± 0.2 | 0.828 ± 0.093 | 1.02 ± 0.15 | 0.936 ± 0.091 | 0.911 ± 0.043 | 0.9 ± 0.1 | 0.925 ± 0.12 | 1.09 ± 0.18 | 0.991 ± 0.13 | 0.983 ± 0.082 | 0.822 ± 0.16 | 0.286 ± 0.062 | 0.358 ± 0.08 | 3.18 | 2.26 | 3.38 | 2.69
14 | HCC1395 BREAST | 0.901 ± 0.016 | 0.981 ± 0.02 | 1.09 ± 0.011 | 0.92 ± 0.058 | 0.873 ± 0.12 | 0.828 ± 0.071 | 0.736 ± 0.041 | 0.809 ± 0.028 | 0.889 ± 0.052 | 0.822 ± 0.34 | 0.987 ± 0.096 | 0.937 ± 0.25 | 0.973 ± 0.12 | 0.847 ± 0.23 | 1.04 ± 0.027 | 0.855 ± 0.14 | 2.92 | 4.21 | 3.21 | 2.87
15 | HCC1806 BREAST | 1.05 ± 0.074 | 0.879 ± 0.021 | 1.02 ± 0.024 | 1.07 ± 0.094 | 0.77 ± 0.076 | 0.74 ± 0.09 | 0.601 ± 0.046 | 0.521 ± 0.026 | 0.98 ± 0.029 | 1.2 ± 0.089 | 1.11 ± 0.078 | 1.07 ± 0.061 | 1.14 ± 0.13 | 1.1 ± 0.036 | 1.04 ± 0.073 | 1.06 ± 0.091 | 2.77 | 3.08 | 2.84 | 3.59
